Consider eleven molecules from ChEMBL document CHEMBL5291721, “A preclinical secondary pharmacology resource illuminates target-adverse drug reaction associations of marketed drugs” (Nat Commun, 2023).

Assay [1] deals with T1, Gastrin/cholecystokinin type B receptor (Homo sapiens, UniProt P32239).
T1 sequence (P32239 whole entry): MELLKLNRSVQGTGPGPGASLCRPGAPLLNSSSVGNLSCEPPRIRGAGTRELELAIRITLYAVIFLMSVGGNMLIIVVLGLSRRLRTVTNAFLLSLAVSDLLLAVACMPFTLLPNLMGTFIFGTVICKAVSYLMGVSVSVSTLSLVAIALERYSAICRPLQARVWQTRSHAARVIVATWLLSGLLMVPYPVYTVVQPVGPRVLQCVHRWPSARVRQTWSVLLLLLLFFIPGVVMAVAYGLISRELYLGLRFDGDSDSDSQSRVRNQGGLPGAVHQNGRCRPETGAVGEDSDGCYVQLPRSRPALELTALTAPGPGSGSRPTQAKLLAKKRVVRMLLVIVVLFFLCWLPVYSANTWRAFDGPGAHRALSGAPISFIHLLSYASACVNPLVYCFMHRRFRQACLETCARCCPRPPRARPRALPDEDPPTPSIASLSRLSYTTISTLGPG

For assay [2], the target named is T2, Neuropeptide Y receptor type 1 (Homo sapiens, UniProt P25929).
T2 sequence (P25929 whole entry): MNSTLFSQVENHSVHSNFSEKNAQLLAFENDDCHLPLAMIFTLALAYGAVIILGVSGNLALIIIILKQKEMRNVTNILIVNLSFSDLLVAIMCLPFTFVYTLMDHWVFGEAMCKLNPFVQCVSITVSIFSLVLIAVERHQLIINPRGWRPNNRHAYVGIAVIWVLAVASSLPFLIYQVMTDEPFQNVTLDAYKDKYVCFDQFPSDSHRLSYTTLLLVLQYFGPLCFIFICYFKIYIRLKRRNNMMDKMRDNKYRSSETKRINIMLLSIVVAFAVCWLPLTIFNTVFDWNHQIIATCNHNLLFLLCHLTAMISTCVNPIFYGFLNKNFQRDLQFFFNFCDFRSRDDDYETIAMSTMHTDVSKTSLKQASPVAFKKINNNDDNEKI

The target of assay [3] is 3',5'-cyclic-AMP phosphodiesterase 4D (Homo sapiens, UniProt Q08499). It is filed as functional.
The target of assay [4] is T3, Alpha-2A adrenergic receptor (Homo sapiens, UniProt P08913).
T3 sequence (P08913 whole entry): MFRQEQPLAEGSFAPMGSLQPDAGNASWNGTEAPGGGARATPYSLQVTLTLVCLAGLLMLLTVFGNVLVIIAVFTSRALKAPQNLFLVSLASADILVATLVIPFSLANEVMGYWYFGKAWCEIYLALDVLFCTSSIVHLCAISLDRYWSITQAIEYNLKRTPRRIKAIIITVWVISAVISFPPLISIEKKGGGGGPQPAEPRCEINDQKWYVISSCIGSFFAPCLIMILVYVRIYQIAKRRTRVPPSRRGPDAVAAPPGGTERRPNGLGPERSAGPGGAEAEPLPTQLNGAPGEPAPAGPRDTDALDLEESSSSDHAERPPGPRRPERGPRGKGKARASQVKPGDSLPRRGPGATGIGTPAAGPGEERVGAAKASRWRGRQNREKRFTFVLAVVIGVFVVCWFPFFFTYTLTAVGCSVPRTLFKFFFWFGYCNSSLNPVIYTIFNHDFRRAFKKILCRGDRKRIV
The class given is functional, cell-based.

For assay [5], the target named is Muscarinic acetylcholine receptor M3 (Homo sapiens, UniProt P20309).
The next assay addresses T4, Progesterone receptor (Homo sapiens, UniProt P06401).
T4 sequence (P06401 whole entry): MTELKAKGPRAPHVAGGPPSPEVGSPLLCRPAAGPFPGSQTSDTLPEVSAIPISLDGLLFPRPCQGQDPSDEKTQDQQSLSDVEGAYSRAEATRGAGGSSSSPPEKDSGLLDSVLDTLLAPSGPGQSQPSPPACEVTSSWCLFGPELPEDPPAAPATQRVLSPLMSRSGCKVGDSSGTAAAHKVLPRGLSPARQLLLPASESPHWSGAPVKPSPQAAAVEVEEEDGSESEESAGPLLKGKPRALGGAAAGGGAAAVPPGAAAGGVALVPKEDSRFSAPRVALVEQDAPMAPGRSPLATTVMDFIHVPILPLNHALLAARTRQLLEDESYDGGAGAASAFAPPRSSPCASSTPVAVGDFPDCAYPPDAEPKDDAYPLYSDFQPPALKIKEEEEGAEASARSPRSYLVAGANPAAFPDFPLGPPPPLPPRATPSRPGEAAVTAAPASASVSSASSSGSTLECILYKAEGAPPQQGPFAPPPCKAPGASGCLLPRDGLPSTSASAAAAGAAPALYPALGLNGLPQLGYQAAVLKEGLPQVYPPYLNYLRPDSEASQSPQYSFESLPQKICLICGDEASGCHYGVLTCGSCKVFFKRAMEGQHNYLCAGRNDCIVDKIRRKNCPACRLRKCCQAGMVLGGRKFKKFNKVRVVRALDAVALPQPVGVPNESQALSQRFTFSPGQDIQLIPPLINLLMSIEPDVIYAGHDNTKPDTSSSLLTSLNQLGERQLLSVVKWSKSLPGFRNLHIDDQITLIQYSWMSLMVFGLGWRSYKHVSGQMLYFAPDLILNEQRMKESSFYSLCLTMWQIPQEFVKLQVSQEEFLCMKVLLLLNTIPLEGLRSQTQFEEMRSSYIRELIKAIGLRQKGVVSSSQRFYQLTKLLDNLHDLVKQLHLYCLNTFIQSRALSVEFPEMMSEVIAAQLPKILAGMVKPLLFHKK
It is filed as functional.

Assay [6] concerns the target Voltage-dependent L-type calcium channel subunit alpha-1C (Rattus norvegicus, UniProt P22002). The class given is functional.
Also: assay procedure not described here.

Chain of Muscarinic acetylcholine receptor M3 (P20309 whole entry): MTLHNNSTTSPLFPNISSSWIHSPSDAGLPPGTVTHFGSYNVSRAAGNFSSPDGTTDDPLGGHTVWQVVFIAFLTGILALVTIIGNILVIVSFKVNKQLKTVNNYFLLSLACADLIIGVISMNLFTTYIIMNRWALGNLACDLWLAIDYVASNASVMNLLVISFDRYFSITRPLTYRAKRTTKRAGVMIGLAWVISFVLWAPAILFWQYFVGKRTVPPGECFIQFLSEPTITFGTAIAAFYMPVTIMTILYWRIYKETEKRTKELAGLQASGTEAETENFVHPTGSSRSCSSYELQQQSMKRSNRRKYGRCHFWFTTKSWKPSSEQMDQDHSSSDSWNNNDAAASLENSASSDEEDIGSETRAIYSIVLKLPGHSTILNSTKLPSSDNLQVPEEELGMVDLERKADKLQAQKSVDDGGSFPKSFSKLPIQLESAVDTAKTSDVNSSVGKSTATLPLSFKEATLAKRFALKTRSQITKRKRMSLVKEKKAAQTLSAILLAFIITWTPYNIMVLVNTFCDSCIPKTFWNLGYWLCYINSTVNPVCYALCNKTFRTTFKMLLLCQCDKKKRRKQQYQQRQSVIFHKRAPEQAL
Chain of 3',5'-cyclic-AMP phosphodiesterase 4D (Q08499 whole entry): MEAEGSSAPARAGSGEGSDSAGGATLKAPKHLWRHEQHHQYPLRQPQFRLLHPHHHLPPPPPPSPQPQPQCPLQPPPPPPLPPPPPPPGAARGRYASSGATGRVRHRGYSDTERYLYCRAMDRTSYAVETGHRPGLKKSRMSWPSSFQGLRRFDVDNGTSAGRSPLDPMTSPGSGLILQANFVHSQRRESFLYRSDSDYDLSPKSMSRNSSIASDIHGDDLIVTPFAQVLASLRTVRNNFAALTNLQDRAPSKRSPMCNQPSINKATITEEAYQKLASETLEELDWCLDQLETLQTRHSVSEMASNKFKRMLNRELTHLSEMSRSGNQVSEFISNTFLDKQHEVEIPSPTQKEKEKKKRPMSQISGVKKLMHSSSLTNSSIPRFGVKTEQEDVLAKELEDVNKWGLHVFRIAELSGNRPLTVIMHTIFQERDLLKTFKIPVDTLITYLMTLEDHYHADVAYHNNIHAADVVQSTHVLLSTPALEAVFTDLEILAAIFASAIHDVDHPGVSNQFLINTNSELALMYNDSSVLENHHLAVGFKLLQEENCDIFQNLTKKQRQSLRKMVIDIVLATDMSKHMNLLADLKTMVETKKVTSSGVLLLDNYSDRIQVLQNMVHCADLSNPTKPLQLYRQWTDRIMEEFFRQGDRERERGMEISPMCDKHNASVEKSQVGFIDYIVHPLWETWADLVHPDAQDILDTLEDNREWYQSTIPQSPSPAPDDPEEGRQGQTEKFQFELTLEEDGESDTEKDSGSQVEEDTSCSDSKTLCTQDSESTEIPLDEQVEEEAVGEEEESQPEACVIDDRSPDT
Chain of Voltage-dependent L-type calcium channel subunit alpha-1C (P22002 whole entry): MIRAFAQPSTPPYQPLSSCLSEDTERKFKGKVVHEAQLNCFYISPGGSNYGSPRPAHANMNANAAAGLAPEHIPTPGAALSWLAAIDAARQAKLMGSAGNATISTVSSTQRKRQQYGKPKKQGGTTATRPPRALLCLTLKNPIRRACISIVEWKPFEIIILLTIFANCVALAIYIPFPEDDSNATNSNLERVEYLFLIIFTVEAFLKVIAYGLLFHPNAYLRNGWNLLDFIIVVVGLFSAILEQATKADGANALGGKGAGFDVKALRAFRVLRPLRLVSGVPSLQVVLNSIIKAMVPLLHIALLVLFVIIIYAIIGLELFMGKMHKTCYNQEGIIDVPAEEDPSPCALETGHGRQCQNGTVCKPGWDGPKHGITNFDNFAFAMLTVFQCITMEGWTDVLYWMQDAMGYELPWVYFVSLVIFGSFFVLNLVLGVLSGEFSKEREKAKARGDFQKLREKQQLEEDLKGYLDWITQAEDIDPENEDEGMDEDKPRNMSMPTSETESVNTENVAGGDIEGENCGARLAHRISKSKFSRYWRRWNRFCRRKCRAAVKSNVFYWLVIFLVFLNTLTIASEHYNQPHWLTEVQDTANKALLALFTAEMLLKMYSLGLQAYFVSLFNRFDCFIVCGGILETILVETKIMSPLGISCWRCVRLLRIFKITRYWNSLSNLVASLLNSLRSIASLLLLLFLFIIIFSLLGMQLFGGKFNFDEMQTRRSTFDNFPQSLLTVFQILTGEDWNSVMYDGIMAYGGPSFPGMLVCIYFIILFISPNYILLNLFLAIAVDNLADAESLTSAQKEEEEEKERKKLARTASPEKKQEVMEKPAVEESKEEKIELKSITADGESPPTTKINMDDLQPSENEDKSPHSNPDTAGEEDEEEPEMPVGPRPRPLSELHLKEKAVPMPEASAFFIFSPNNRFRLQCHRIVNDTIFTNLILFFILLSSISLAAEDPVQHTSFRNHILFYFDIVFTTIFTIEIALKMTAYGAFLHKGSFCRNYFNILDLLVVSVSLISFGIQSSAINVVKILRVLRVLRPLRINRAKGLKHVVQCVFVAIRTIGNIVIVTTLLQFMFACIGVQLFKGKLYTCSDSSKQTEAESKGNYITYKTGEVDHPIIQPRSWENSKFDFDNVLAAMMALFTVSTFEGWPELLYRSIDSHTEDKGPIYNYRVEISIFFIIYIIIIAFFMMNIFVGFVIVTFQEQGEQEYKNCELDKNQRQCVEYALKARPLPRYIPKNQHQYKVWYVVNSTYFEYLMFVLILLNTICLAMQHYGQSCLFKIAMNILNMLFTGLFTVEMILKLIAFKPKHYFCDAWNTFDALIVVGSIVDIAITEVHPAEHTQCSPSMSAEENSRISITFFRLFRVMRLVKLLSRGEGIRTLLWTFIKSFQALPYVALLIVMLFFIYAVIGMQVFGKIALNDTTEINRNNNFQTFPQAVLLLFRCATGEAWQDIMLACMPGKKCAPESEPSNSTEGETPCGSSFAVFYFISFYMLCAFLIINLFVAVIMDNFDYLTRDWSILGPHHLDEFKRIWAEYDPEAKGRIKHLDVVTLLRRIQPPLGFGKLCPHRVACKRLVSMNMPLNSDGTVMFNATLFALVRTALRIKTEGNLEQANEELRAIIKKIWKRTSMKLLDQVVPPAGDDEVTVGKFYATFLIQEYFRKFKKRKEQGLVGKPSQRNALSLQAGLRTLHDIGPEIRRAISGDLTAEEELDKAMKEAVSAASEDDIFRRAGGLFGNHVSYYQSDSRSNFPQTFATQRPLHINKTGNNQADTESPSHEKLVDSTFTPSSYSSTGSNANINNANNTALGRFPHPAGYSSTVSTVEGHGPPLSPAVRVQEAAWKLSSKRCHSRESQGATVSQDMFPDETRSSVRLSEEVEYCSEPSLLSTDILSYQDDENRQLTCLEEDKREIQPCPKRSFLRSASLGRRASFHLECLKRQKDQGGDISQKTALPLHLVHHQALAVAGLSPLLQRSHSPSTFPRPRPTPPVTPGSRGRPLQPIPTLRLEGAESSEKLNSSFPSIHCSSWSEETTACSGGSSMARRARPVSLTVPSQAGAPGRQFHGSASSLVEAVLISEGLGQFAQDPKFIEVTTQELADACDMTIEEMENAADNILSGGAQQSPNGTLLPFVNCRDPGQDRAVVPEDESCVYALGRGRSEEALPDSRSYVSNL

Regarding `CC(C)(C)C(=O)Oc1ccc(S(=O)(=O)Nc2ccccc2C(=O)NCC(=O)O)cc1`, the AC50 (in assay [1]; in assay [2]; in assay [3]; in assay [4]; in assay [5]; at Progesterone receptor) was more than 30 µM each time. The AC50 in assay [6] is more than 30 µM.
`COC(=O)C1=C(C)NC(C)=C(C(=O)OC(C)(C)CN(C)CCC(c2ccccc2)c2ccccc2)C1c1cccc([N+](=O)[O-])c1` (configuration not stated) [LERCANIDIPINE]: the AC50 (in assay [1]; in assay [2]; in assay [3]; in assay [4]; in assay [5]; at Progesterone receptor) was more than 30 µM throughout. The AC50 in assay [6] was 0.046 µM.
In the case of `CCC(C(=O)O)c1ccc(N2Cc3ccccc3C2=O)cc1` (configuration not stated) [INDOBUFEN], the AC50 (in assay [1]; in assay [2]; in assay [3]; in assay [4]; in assay [5]; at Progesterone receptor) was more than 30 µM each time. In addition, in assay [6], the half-maximal activity concentration (AC50) is more than 30 µM.
Turning to `CC(C)=CCC/C(C)=C/C=C/C(C)=C/C=C/C(C)=C/C=C/C=C(C)/C=C/C=C(C)/C=C/C=C(\C)CCC=C(C)C` [LYCOPENE], the AC50 is more than 30 µM in assay [1]; more than 30 µM in assay [2]; more than 30 µM in assay [3]; more than 30 µM in assay [4]; more than 30 µM in assay [5]; 6.2 µM on Progesterone receptor. Further, in assay [6], the AC50 is more than 30 µM.
As for `O=C(O)C1=C(CSc2nnnn2CS(=O)(=O)O)CS[C@@H]2[C@H](NC(=O)[C@H](O)c3ccccc3)C(=O)N12` [CEFONICID], the AC50 (in assay [1]; in assay [2]; in assay [3]; in assay [4]; in assay [5]; at Progesterone receptor) was more than 30 µM throughout. Moreover, the AC50 in assay [6] is more than 30 µM.
For the molecule `COc1ccc2c3c1O[C@H]1C(=O)CC[C@@]4(O)[C@@H](C2)N(C)CC[C@]314` [OXYCODONE], the AC50 (in assay [1]; in assay [2]; in assay [3]; in assay [4]; in assay [5]; at Progesterone receptor) was more than 30 µM each time. The AC50 in assay [6] is more than 30 µM.
Regarding `CC(C(=O)O)c1ccc(N2Cc3ccccc3C2=O)cc1` (configuration not stated) [INDOPROFEN], the AC50 (in assay [1]; in assay [2]; in assay [3]; in assay [4]; in assay [5]; at Progesterone receptor) was more than 30 µM each time. In addition, the AC50 in assay [6] is more than 30 µM.
`COc1ccc(-c2ccc3cc(C(=O)O)ccc3c2)cc1C12CC3CC(CC(C3)C1)C2`: the AC50 was more than 30 µM in assay [1]; more than 30 µM in assay [2]; more than 30 µM in assay [3]; more than 30 µM in assay [4]; more than 30 µM in assay [5]; 4.2 µM on Progesterone receptor. Besides, the AC50 in assay [6] turned out to be 1.5 µM.
Consider `O=C(O)CCCCCCNC1c2ccccc2CCc2ccccc21` [AMINEPTINE], for which the AC50 (in assay [1]; in assay [2]; in assay [3]; in assay [4]; in assay [5]; at Progesterone receptor) was more than 30 µM in each case. For the same molecule, in assay [6], the AC50 was more than 30 µM.
Take `CCOC(=O)[C@H](CCc1ccccc1)N[C@@H](C)C(=O)N1C(=O)N(C)C[C@H]1C(=O)O`: the AC50 (in assay [1]; in assay [2]; in assay [3]; in assay [4]; in assay [5]; on Progesterone receptor) was more than 30 µM in each case. The AC50 in assay [6] is more than 30 µM.
On to `CC(CC(c1ccccc1)c1ccccc1)NC(C)(C)C` (configuration not stated) [TERODILINE], for which the AC50 in assay [1] was more than 30 µM; in assay [2] it was more than 30 µM; in assay [3] it was more than 30 µM; in assay [4], more than 30 µM; in assay [5] it was 1.1 µM; on Progesterone receptor, more than 30 µM. Further, in assay [6], the AC50 was more than 30 µM.

As usually defined, the AC50 is the concentration at which the activity in the assay is half-maximal.
